In ChEMBL document CHEMBL1131918, “Quantitative analysis of the kinetics of phospholipase A2 using fast atom bombardment mass spectrometry” (Bioorg Med Chem Lett, 1999):

Key:
[1] = Catalytic rate constant against phospholipase A2 was determined; format: ADME
phospholipase A2 = assay: Michaelis -Menten constant against phospholipase A2 was determined; format: ADME; details: phospholipase A2 enzyme

`CCCCCCCCCC(=O)OCC(O)COP(=O)([O-])OCC[N+](C)(C)C` (centres undefined) showed a k cat [1] of 1.03 µM/min/mg and a Km (phospholipase A2) of 2300 µM.

Compound `CCCCCCCCCC(=O)OCC(COP(=O)([O-])OCC[N+](C)(C)C)OC(=O)CCCCCCCCC` (centres undefined) has a k cat [1] of 1.06 µM/min/mg and a Km (phospholipase A2) of 2400 µM.
